Test results as given in ChEMBL document CHEMBL1149974, “New Oligosaccharidic Crown Ethers as Potential Drug-Targetting Vectors: Synthesis & Biological Evaluation” (1994).
In brackets after ≈: the same amount, converted by molar mass.

System: Saccharomyces cerevisiae
Test: Minimum inhibitory concentration required for in vitro inhibition of flocculation against cell wall galactose-specific yeast lectin (KbCWL)
Type: functional

MIC | Compound
3000 µM (≈ 2260 µg/mL) | CO[C@H]1O[C@@H](C)[C@@H](O[C@@H]2O[C@@H](CO)[C@@H](O[C@@H]3O[C@@H](CO)[C@H](O)[C@H](O)[C@@H]3O)[C@H](O)[C@@H]2O)[C@@H]2OCCOCCOc3ccccc3OCCOCCO[C@H]12
1250 µM | LACTOSE, ANHYDROUS
1750 µM (≈ 340 µg/mL) | CO[C@@H]1O[C@H](CO)[C@H](O)[C@H](O)[C@H]1O
2650 µM (≈ 1570 µg/mL) | CO[C@H]1O[C@@H](C)[C@@H](O[C@@H]2O[C@@H](CO)[C@H](O)C(O)[C@@H]2O)C2OCCOCCOc3ccccc3OCCOCCO[C@@H]21 (single isomer, unassigned)
3500 µM (≈ 631 µg/mL) | O=C[C@H](O)[C@@H](O)[C@@H](O)[C@H](O)CO [GALACTOSE]
